Publication PMC7280082 (Acta Pharmaceutica Sinica. B, 2019)

Columns and labels:
[1] = test system: HIV-1 RES056 (K103N + Y181C) double-mutant strain; experiment: microbe, parasite or virus in culture; format: cell-based; conditions: for SI RES056: CC50/EC50; for EC50: Human immunodeficiency virus 1, MT4, read-out: EC50 RES056; for RF RES056: ratio of EC50 (resistant viral strain)/EC50 (wild-type viral strain)
[2] = test system: HIV-1 F227L + V106A double-mutant strain; experiment: microbe, parasite or virus in culture; format: cell-based; conditions: for SI F227L + V106A: CC50/EC50; for EC50: Human immunodeficiency virus 1, MT4, read-out: EC50 F227L + V106A; for RF F227L + V106A: ratio of EC50 (resistant viral strain)/EC50 (wild-type viral strain)
[3] = test system: HIV-1 Y181C mutant strain; experiment: microbe, parasite or virus in culture; format: cell-based; conditions: for SI Y181C: CC50/EC50; for EC50: Human immunodeficiency virus 1, MT4, read-out: EC50 Y181C; for RF Y181C: ratio of EC50 (resistant viral strain)/EC50 (wild-type viral strain)
[4] = test system: HIV-1 Y188L mutant strain; experiment: microbe, parasite or virus in culture; format: cell-based; conditions: for SI Y188L: CC50/EC50; for EC50: Human immunodeficiency virus 1, MT4, read-out: EC50 Y188L; for RF Y188L: ratio of EC50 (resistant viral strain)/EC50 (wild-type viral strain)
[5] = test system: HIV-1 K103N mutant strain; experiment: microbe, parasite or virus in culture; format: cell-based; conditions: for SI K103N: CC50/EC50; for EC50: Human immunodeficiency virus 1, MT4, read-out: EC50 K103N; for RF K103N: ratio of EC50 (resistant viral strain)/EC50 (wild-type viral strain)
[6] = test system: WT HIV-1 (IIIB); experiment: microbe, parasite or virus in culture; format: cell-based; conditions: for EC50: Human immunodeficiency virus 1, IIIB, MT4, read-out: EC50 IIIB; for SI IIIB: ratio of CC50/EC50
[7] = Cytotoxicity in mock-infected MT-4 cell cultures, MTT method; conditions: human, mock-infected MT-4 cells
[8] = test system: HIV-2 strain (ROD); experiment: Anti-HIV-2; format: cell-based; conditions: for EC50: Human immunodeficiency virus 2, MT4, read-out: EC50 ROD; for SI ROD: ratio of CC50/EC50
[9] = test system: HIV-1 E138K mutant strain; experiment: microbe, parasite or virus in culture; format: cell-based; conditions: for SI E138K: CC50/EC50; for EC50: Human immunodeficiency virus 1, MT4, read-out: EC50 E138K; for RF E138K: ratio of EC50 (resistant viral strain)/EC50 (wild-type viral strain)
[10] = test system: HIV-1 L100I mutant strain; experiment: microbe, parasite or virus in culture; format: cell-based; conditions: for SI L100I: CC50/EC50; for EC50: Human immunodeficiency virus 1, MT4, read-out: EC50 L100I; for RF L100I: ratio of EC50 (resistant viral strain)/EC50 (wild-type viral strain)
[11] = target: WT HIV-1 RT (Human immunodeficiency virus type 1 group M subtype B, UniProt P03366); experiment: Recombinant HIV-1 RT inhibitory assay; format: biochemical

Row | SMILES | SI RES056 [1] | EC50 [1] | RF RES056 [1] | SI F227L + V106A [2] | EC50 [2] | RF F227L + V106A [2] | SI Y181C [3] | EC50 [3] | RF Y181C [3] | SI Y188L [4] | EC50 [4] | RF Y188L [4] | SI K103N [5] | EC50 [5] | RF K103N [5] | EC50 [6] | SI IIIB [6] | CC50 at 5 days [7] | EC50 [8] | SI E138K [9] | further results
1 | Cc1cc(-c2ccc(N(C)C)cc2)cc(C)c1Oc1nc(NC2CCN(Cc3ccc(S(N)(=O)=O)cc3)CC2)nc2ccsc12 [Compound 29, 4-((4-((4-((4'-(Dimethylamino)-3,5-dimethyl-[1,1′-biphenyl]-4-yl)oxy)thieno[3,2-d]pyrimidin-2-yl)amino)piperidin-1-yl)methyl)benzenesulfonamide] | 11 | 1680 ± 388 nM | 21.2 | 131 | 140 ± 1.31 nM | 1.8 | 71 | 260 ± 30.2 nM | 3.3 | 68 | 269 ± 30 nM | 3.4 | 189 | 97.2 ± 3.07 nM | 1.2 | 79.2 ± 48.7 nM | 232 | 18300 ± 4500 nM | > 18400 nM | 100 | SI ROD [8]: <1; EC50 [9]: 183 ± 19.4 nM; RF E138K [9]: 2.3; SI L100I [10]: 74; EC50 [10]: 247 ± 4.5 nM; RF L100I [10]: 3.1; IC50 [11]: 477 ± 9 nM
2 | Cc1cc(-c2cccc(C#N)c2)cc(C)c1Oc1nc(NC2CCN(Cc3ccc(S(N)(=O)=O)cc3)CC2)nc2ccsc12 [Compound 27, 4-((4-((4-((3′-Cyano-3,5-dimethyl-[1,1′-biphenyl]-4-yl)oxy)thieno[3,2-d]pyrimidin-2-yl)amino)piperidin-1-yl)methyl)benzenesulfonamide] | 40 | 347 ± 75.9 nM | 26.1 | 285 | 49.2 ± 8.26 nM | 3.7 | 432 | 32.4 ± 4.07 nM | 2.4 | 256 | 54.7 ± 2.26 nM | 4.1 | 1639 | 8.56 ± 1.69 nM | 0.6 | 13.3 ± 2.6 nM | 1054 | 14000 ± 8280 nM | 4920 ± 2250 nM | 402 | SI ROD [8]: 3; EC50 [9]: 34.8 ± 9.28 nM; RF E138K [9]: 2.6; SI L100I [10]: 569; EC50 [10]: 24.6 ± 4.97 nM; RF L100I [10]: 1.9; IC50 [11]: 207 ± 6 nM
3 | Cc1cc(-c2ccco2)cc(C)c1Oc1nc(NC2CCN(Cc3ccc(C(N)=O)cc3)CC2)nc2ccsc12 [Compound 12, 4-((4-((4-(4-(Furan-2-yl)-2,6-dimethylphenoxy)thieno[3,2-d]pyrimidin-2-yl)amino)piperidin-1-yl)methyl)benzamide] | 10 | 2900 ± 119 nM | 31.1 | 26 | 1110 ± 269 nM | 11.9 | 57 | 511 ± 77.2 nM | 5.5 | 94 | 307 ± 58.2 nM | 3.3 | 224 | 129 ± 5.87 nM | 1.4 | 93.3 ± 82.8 nM | 310 | 28900 ± 15600 nM | 25300 nM | 101 | SI ROD [8]: 1; EC50 [9]: 287 ± 4.98 nM; RF E138K [9]: 3.1; SI L100I [10]: 70; EC50 [10]: 414 ± 37.9 nM; RF L100I [10]: 4.4; IC50 [11]: 901 ± 45 nM
4 | COc1ccc(-c2cc(C)c(Oc3nc(NC4CCN(Cc5ccc(S(N)(=O)=O)cc5)CC4)nc4ccsc34)c(C)c2)cc1 [Compound 21, 4-((4-((4-((4′-Methoxy-3,5-dimethyl-[1,1′-biphenyl]-4-yl)oxy)thieno[3,2-d]pyrimidin-2-yl)amino)piperidin-1-yl)methyl)benzenesulfonamide] | 11 | 1560 ± 1280 nM | 25.6 | 136 | 122 ± 59.9 nM | 2.0 | 105 | 157 ± 5.61 nM | 2.6 | 114 | 146 ± 44.7 nM | 2.4 | 289 | 57.6 ± 0.67 nM | 0.9 | 61.1 ± 10.3 nM | 272 | 16600 ± 4650 nM | > 16600 nM | 145 | SI ROD [8]: <1; EC50 [9]: 114 ± 9.2 nM; RF E138K [9]: 1.9; SI L100I [10]: 98; EC50 [10]: 169 ± 2.91 nM; RF L100I [10]: 2.8; IC50 [11]: 268 ± 52 nM
5 | Cc1cc(-c2cccs2)cc(C)c1Oc1nc(NC2CCN(Cc3ccc(C(N)=O)cc3)CC2)nc2ccsc12 [Compound 16, 4-((4-((4-(2,6-Dimethyl-4-(thiophen-2-yl)phenoxy)thieno[3,2-d]pyrimidin-2-yl)amino)piperidin-1-yl)methyl)benzamide] | ≥ 2 | 10000 nM | 49.2 | ≥ 19 | 1090 ± 226 nM | 5.4 | ≥ 28 | 731 ± 198 nM | 3.6 | ≥ 33 | 619 ± 3.59 nM | 3.0 | ≥ 111 | 184 ± 90.2 nM | 0.9 | 203 ± 51.5 nM | ≥101 | ≥ 20500 nM | > 20500 nM | ≥ 31 | EC50 [9]: 662 ± 58.4 nM; RF E138K [9]: 3.3; SI L100I [10]: ≥ 28; EC50 [10]: 731 ± 274 nM; RF L100I [10]: 3.6; IC50 [11]: 595 ± 44 nM
6 | Cc1cc(-c2ccccc2)cc(C)c1Oc1nc(NC2CCN(Cc3ccc(C(N)=O)cc3)CC2)nc2ccsc12 [Compound 20, 4-((4-((4-((3,5-Dimethyl-[1,1′-biphenyl]-4-yl)oxy)thieno[3,2-d]pyrimidin-2-yl)amino)piperidin-1-yl)methyl)benzamide] | 10 | 1733 ± 5.51 nM | 36.3 | 44 | 395 ± 5.14 nM | 8.3 | 89 | 196 ± 54.6 nM | 4.1 | 85 | 205 ± 13.6 nM | 4.3 | 171 | 102 ± 2.5 nM | 2.1 | 47.7 ± 11.8 nM | 367 | 17500 ± 6180 nM | 3840 ± 1760 nM | 120 | SI ROD [8]: 5; EC50 [9]: 146 ± 12.5 nM; RF E138K [9]: 3.1; SI L100I [10]: 42; EC50 [10]: 416 ± 87.9 nM; RF L100I [10]: 8.7; IC50 [11]: 161 ± 14 nM
